We go through 1 molecule from US20180243190A1, “ACTIVATORS OF NRF2-DEPENDENT PHOTOPROTECTION AND RELATED USES THEREOF” (THE ARIZONA BOARD OF REGENTS ON BEHALF OF THE UNIVERSITY OF …, priority 2015, published 2018).

For experiment [1], the system named is primary human epidermal keratinocytes (HEKs). The experiment can be described thus: Oxidative Stress RT2 Profiler PCR Expression Array analysis. The class given is cell-based. To be noted: bixin 20 μM, 24 h. The method, then:
Total cellular RNA was prepared according to a standard procedure using the RNeasy kit (Qiagen, Valencia, Calif., USA). Reverse transcription was performed using the RT^2 First Strand kit (SuperArray, Frederick, Md., USA) and 1 μg total RNA. The Human Oxidative Stress RT^2Profiler™ PCR Expression Array (SuperArray) profiling the expression of 84 stress-related genes was employed as described before. Gene-specific product was normalized to ACTB and quantified using the comparative (ΔΔCt) Ct method following the ABI Prism 7000 sequence detection system user guide. Expression values were averaged across three independent array experiments followed by statistical analysis.

Experiment [2] concerns NRF2. As to the kind of experiment: Immunoblot analysis of NRF2 and NRF2 targets in HEKs. The experiment is classed as cell-based, human. The note with it: ≤20 μM, 24 h, exposure time ≤24 h at 20 μM. On the procedure: Experiments were performed according to previously published procedures. Cells were harvested in sample buffer (50 mM Tris-HCl [pH 6.8], 2% sodium dodecyl sulfate (SDS), 10% glycerol, 100 mM dithiothreitol (DTT), and 0.1% bromophenol blue), boiled and sonicated. Total cell lysates were resolved by SDS-PAGE and subjected to immunoblot analyses with the indicated antibodies. For the ubiquitination assay, cells were cotransfected with expression vectors for NRF2 and HA-tagged ubiquitin (HA-Ub). Cells were left untreated or treated with either 5 μM sulforaphane (SF) or 40 μM bixin along with 10 μM MG132 for 4 h. Cells were harvested in buffer containing 2% SDS, 150 mM NaCl, 10 mM Tris-HCl (pH 8.0), and 1 mM DTT and boiled immediately. For immunoprecipitation, 1 μg of NRF2 antibody was incubated with the cell lysates at 4° C. overnight with protein A agarose beads (Invitrogen). Immunoprecipitated complexes were washed four times with RIPA buffer and eluted in sample buffer by boiling for 5 min. Samples were resolved by SDS-PAGE and immunoblotted with HA antibody. To measure the half-life of NRF2, HaCaT cells were either left untreated or treated with 5 μM bixin for 4 h, then 50 μM cycloheximide was added to block protein synthesis. […] The relative intensity of the bands was quantified using the ChemiDoc CRS gel documentation system and Quantity One software (BioRad).

For experiment [3], the system named is NRF2 transcriptional activity. As to the kind of experiment: Dual luciferase NQO1-ARE reporter assay in HaCaT keratinocytes. The experiment is classed as cell-based, human. To be noted: 10-40 μM, 16 h. The method, then: Transfection of cDNA was performed using Lipofectamine 3000 (Invitrogen) according to the manufacturer's instructions. Activation of NRF2 transcriptional activity was performed as previously published. Briefly, HaCaT cells were cotransfected with expression vectors for either KEAP1 wild type (KEAP1-WT) or KEAP1 with a mutation that generates a protein that contains a serine residue instead of a cysteine (KEAP1-C151S), along with NQO1-ARE firefly luciferase and Renilla luciferase reporters. At 24 h post-transfection, cells were left untreated or treated with SF (5 μM), As (5 μM), or bixin (40 μM) for 16 h. The cells were then lysed for analysis of the reporter gene activity using the Promega dual-luciferase reporter gene assay system.

For experiment [4], the system named is NRF2. The experiment can be described thus: Immunoblot analysis (NRF2/KEAP1/targets) in HaCaT keratinocytes. The experiment is classed as cell-based, human. The method, then:
Experiments were performed according to previously published procedures. Cells were harvested in sample buffer (50 mM Tris-HCl [pH 6.8], 2% sodium dodecyl sulfate (SDS), 10% glycerol, 100 mM dithiothreitol (DTT), and 0.1% bromophenol blue), boiled and sonicated. Total cell lysates were resolved by SDS-PAGE and subjected to immunoblot analyses with the indicated antibodies. For the ubiquitination assay, cells were cotransfected with expression vectors for NRF2 and HA-tagged ubiquitin (HA-Ub). Cells were left untreated or treated with either 5 μM sulforaphane (SF) or 40 μM bixin along with 10 μM MG132 for 4 h. Cells were harvested in buffer containing 2% SDS, 150 mM NaCl, 10 mM Tris-HCl (pH 8.0), and 1 mM DTT and boiled immediately. For immunoprecipitation, 1 μg of NRF2 antibody was incubated with the cell lysates at 4° C. overnight with protein A agarose beads (Invitrogen). Immunoprecipitated complexes were washed four times with RIPA buffer and eluted in sample buffer by boiling for 5 min. Samples were resolved by SDS-PAGE and immunoblotted with HA antibody. To measure the half-life of NRF2, HaCaT cells were either left untreated or treated with 5 μM bixin for 4 h, then 50 μM cycloheximide was added to block protein synthesis. Total cell lysates were collected at different time points and subjected to immunoblot analysis with NRF2 antibody. The relative intensity of the bands was quantified using the ChemiDoc CRS gel documentation system and Quantity One software (BioRad).

The subject of experiment [5] is NRF2, KEAP1, GCLM, AKR1C1 mRNA. As to the kind of experiment: Quantitative real-time RT-PCR in HaCaT cells. To be noted: 40 μM, 4 h and 16 h. The experiment is classed as cell-based, human. From the text:
Total RNA was extracted from HaCaT cells and mouse skin tissues using TRIzol (Invitrogen). Equal amounts of mRNA were used to generate cDNA using the M-MLV Reverse Transcriptase synthesis kit according to the manufacturer's instructions (Promega). RT-PCR and primer sequences of NRF2, KEAP1, GCLM, AKR1C1 and GAPDH were described previously to evaluate mRNA expression using the LightCycler 480 system (Roche). Quantification of cDNA amount for mouse Nrf2, Keap1, Gclm, and Akr1c1 in each skin tissue sample was performed using the KAPA SYBR FAST qPCR Kit (Kapa Biosystems).

The test system of experiment [6] is NRF2. As to the kind of experiment: Cell-based NRF2 ubiquitination assay. Details: species or system human. To be noted: HaCaT, bixin 40 μM or SF 5 μM with MG132 10 μM, 4 h. On the procedure:
In order to test if bixin-based NRF2 activation occurs through inhibition of KEAP1-mediated ubiquitination, a cell-based ubiquitination assay was performed in HaCaT cells cotransfected with expression vectors for NRF2 and HA-tagged ubiquitin (HA-Ub) (FIG. 3F). To this end, cells were either exposed to bixin (40 μM) or sulforaphane (SF; 5 μM, positive control) or left untreated, combined with proteasome inhibition (MG132; 10 μM, 4 h).
Experiments were performed according to previously published procedures. Cells were harvested in sample buffer (50 mM Tris-HCl [pH 6.8], 2% sodium dodecyl sulfate (SDS), 10% glycerol, 100 mM dithiothreitol (DTT), and 0.1% bromophenol blue), boiled and sonicated. Total cell lysates were resolved by SDS-PAGE and subjected to immunoblot analyses with the indicated antibodies. For the ubiquitination assay, cells were cotransfected with expression vectors for NRF2 and HA-tagged ubiquitin (HA-Ub). Cells were left untreated or treated with either 5 μM sulforaphane (SF) or 40 μM bixin along with 10 μM MG132 for 4 h. Cells were harvested in buffer containing 2% SDS, 150 mM NaCl, 10 mM Tris-HCl (pH 8.0), and 1 mM DTT and boiled immediately. […] The relative intensity of the bands was quantified using the ChemiDoc CRS gel documentation system and Quantity One software (BioRad).

Experiment [7] relates to NRF2. The experiment can be described thus: Immunoblot analysis in human primary melanocytes. The experiment is classed as cell-based. To be noted: 0-40 μM. The method, then:
Human cultured primary melanocytes (skin pigment producing cells) were treated with Bixin (0-40 μM) for up to 16 h. After 4 and 16 h, cells were harvested for immunoblot analysis testing for Nrf2 upregulation (Nrf2) GAPDH served as loading control.
Human cultured primary melanocytes (skin pigment producing cells) were treated with Bixin (0-40 μM) for 16 h. After 16 h, cells were harvested for immunoblot analysis testing for upregulation of cytoprotective Nrf2 targets including NQO1 and TrxR1. GAPDH served as loading control.

The structures appear in SMILES notation. A value given as a limit tells only on which side of the number the result lay.

In the case of `COC(=O)/C=C/C(C)=C\C=C\C(C)=C\C=C\C=C(C)\C=C\C=C(C)\C=C\C(=O)O` [bixin], in experiment [1], the “expression of NRF2 target genes (AKR1C2, GCLC, NQO1, SLC7A11, FTH1, TXNRD1, NCF2, SRXN)” value is on record as “Pronounced upregulation”. Further, in the experiment with NRF2 [2], the “protein levels of NRF2 and NRF2 targets (NQO1, AKR1C2, HO-1, TrxR, GCLM, SRXN1, FTH1)” value is “increased protein levels”. For the same molecule, the NRF2 transcriptional activity result in experiment [3] is “dose-dependent induction”. In the experiment on NRF2 [4], the “NRF2 target proteins GCLM and AKR1C1” value is listed as “upregulated”; the “bixin-induced Nrf2 upregulation after 24 h preincubation using NAC” value is on record as “did not attenuate”. In addition, in the experiment on NRF2 [4] (bixin 20 μM), the “duration of NRF2 upregulation” value was “sustained over the course of the 24 h treatment” and the “time to detectable induction of NRF2 protein levels” value was at most 2 h. The KEAP1 protein levels entry in the experiment with NRF2 [4] (bixin 20 μM, 0-48 h) is “no changes”. For the same molecule, in the experiment on NRF2 [4] (bixin 20 μM, 48 h), the “duration of GCLM upregulation” value is “persisted over an extended period”. Besides, in the experiment on NRF2 [4] (bixin 40 μM, 4 h, 1 h antioxidant pretreatment), the “bixin-induced upregulation of Nrf2 protein levels under cotreatment with anti-oxidants (tiron, trolox, NAC)” value is recorded as “not attenuated”. For the same molecule, in experiment [5], the “NRF2 or KEAP1 mRNA levels” value is on record as “without affecting” and the “NRF2 target genes at the mRNA level (GCLM, AKR1C1)” value is “pronounced upregulation”. The “NRF2-ubiquitination versus untreated control” value in the experiment on NRF2 [6] is on record as “dramatic reduction”. Further, the “Nrf2 upregulation in melanocytes” value in the experiment with NRF2 [7] (4 and 16 h) is “efficient Nrf2 activator”. For the same molecule, in the experiment on NRF2 [7] (16 h), the “upregulation of cytoprotective Nrf2 targets NQO1 and TrxR1 in melanocytes” value was “efficient activator”.
